# Measured values: patent US11058690B2, “Use of cytochrome bc1 complex inhibitor in preparing pharmaceutical composition” (BEIJING WEILANZHIYUAN MEDICAL TECHNOLOGY CO., LTD., priority 2017, dated 2021)
# Where two headings read alike, the source gives them in different places.
# Key:
# Kunming male mice = test: acetic acid writhing test on mice; format: in vivo, mouse; settings: for curative effect compared with indomethacin: 100 mg/Kg versus indomethacin 50 mg/Kg; for writhe starting time (reaction latency) compared with control group: FAPM and trifloxystrobin intraperitoneal, azoxystrobin intragastric
# [1] = system: rat uterine smooth muscle; test: contraction of isolated rat uterine smooth muscle strips induced by PGF2α; format: cell-based; settings: for IC50: read-out: IC50, inhibition of uterine smooth muscle contraction; for inhibitory effect on PGF2α-induced contraction: amplitude and frequency
# Protocol: Female healthy Wistar rats weighing 230-270 g were used in the experiment. At 2 days before the experiment, Diethylstilbestrol suspension was injected intraperitoneally once at 0.1 mg/kg, resulting in artificial estrus. The rats were sacrificed by cervical dislocation, and the uterus was removed by laparotomy and immediately placed in a glass plate containing Tyrode's solution. Connective and adipose tissues attached to the uterine wall were carefully peeled off, the uterus was cut open along the mesangial line and laid flat on the bottom of the glass plate, then one side of the uterus was divided into left and right uterine muscle strips by using a surgical blade along the uterine contraction band running along smooth muscle, the two ends of the uterine muscle strip on one side were ligated with wires respectively, and then transferred into a nutrient tube which was aerated with oxygen and filled with 5 ml of Tyrode's solution and preheated to 37.2±0.5° C., with a lower end fixed and an upper end connected with a tension sensor. The materials stood for 20-30 minutes, liquid was changed 2-3 times, then the uterus was given a load of 1 g and kept for 30-60 minutes until the uterus had regular contraction waves, 40 mM KCL solution was provided for 10 minutes, and the function of the uterine muscle strips was evaluated. Then the muscle strips were relaxed and washed 2-3 times with Tyrode's solution, then let stand for 30 minutes; after standing, the uterine muscle strips were given a load of 1 g and kept for 30-60 minutes, and the administration and the observation were carried out after the uterine muscle strips contracted stably (i.e. regular contraction waveforms appear in a microcomputer display screen), the changes of relevant data such as contraction tension, amplitude and area under the contraction curve of the uterine smooth muscle strips were recorded, and the drug given was evaluated. During the experiment, the working temperature of the Tyrode's solution was kept at 37.2±0.5° C., and oxygen was continuously aerated into the nutrient tube with 1-2 bubbles per second. A cumulative dosing method was adopted, and 5 μl was administered each time, from low concentration to high concentration. A final drug concentration refers to the concentration of the drug dissolved in 5 ml Tyrode's solution in a […] tube.
# Fluacrypyrim (FAPM), the first strobilurin acaricide developed by BASF SE and Nippon Soda Co., Ltd., is a Qo site inhibitor of the mitochondrial cytochrome bc1 complex. […] The area under the smooth muscle contraction curve was calculated before drug intervention and 10 minutes after different doses of drug intervention respectively. A drug dose-effect curve was plotted by taking the area under the smooth muscle contraction curve caused by PGF2α as 100%, to calculate the median effective dose (IC50 value) of the drug for inhibiting uterine smooth muscle contraction.
# [2] = system: Mouse mononuclear macrophage RAW 264.7; test: nitric oxide production by LPS-stimulated macrophages (Griess assay); format: cell-based; settings: for Maximum inhibition rate: in %; for IC50: read-out: IC50, NO production
# Kunming female mice [3] = test: oxytocin-induced dysmenorrhea model in mice (diethylstilbestrol sensitization); format: in vivo, mouse; settings: for Writhe starting time / Number of writhing times: Table 9; for Number of writhing times: within 30 min
# Protocol: (§1) A mouse dysmenorrhea model was established with reference to Yang L., Cao Z., Yu B. & Chai C. An in vivo mouse model of primary dysmenorrhea. Exp Anim. 2015, August 64, 295-303. Adult healthy Kunming female mice were randomly grouped, 10 mice in each group. Experimental mice were intragastrically given diethylstilbestrol 0.2 mg daily for 12 days. Different kinds and dosages of the inhibitors of the cytochrome bc1 complex were given intraperitoneally or intragastrically 30 min after the last administration. Indometacin (50 mg/kg) was injected intraperitoneally as positive control, PGF2α (1.3 mg/kg) or oxytocin (20 U/kg) was injected intraperitoneally 1 h later, and the writhe starting time (reaction latency) and the number of writhing times within 30 min were observed and recorded.
# Kunming female mice [4] = test: PGF2α-induced dysmenorrhea model in mice (diethylstilbestrol sensitization); format: in vivo, mouse; settings: for Writhe starting time / Number of writhing times: Table 8; for Number of writhing times: within 30 min
# Protocol: as §1
# [5] = Table 6, 200 mg/Kg intragastric
# [6] = Table 6, 200 mg/Kg intragastric, within 30 min
# [7] = PGF2α (450 nM), area under the contraction curve 10 minutes after drug
# [8] = Rattus norvegicus, 10 min, PGF2α (450 nM), area under the contraction curve 10 minutes after drug
# [9] = 50 mg/Kg versus indomethacin 50 mg/Kg
# [10] = Mus musculus, RAW264.7, LPS 1 μg/mL, 24 h
structure (smiles),measurement,setting,value
"CNC(=O)/C(=N/OC)c1ccccc1COc1cc(C)ccc1C [Dimoxystrobin, dimoxystrobin]",Writhe starting time,Kunming male mice; 200 mg/Kg intragastric,not prolonged
same,effect on number of writhing times,Kunming male mice; 200 mg/Kg intragastric,obviously inhibited
same,Writhe starting time,Kunming male mice; [5],3.3 ± 0.5 min
same,Number of writhing times,Kunming male mice; [6],31.5 ± 4.7
same,IC50,[1]; [7],1650 ± 120 nM
"CO/N=C(/C1=NOCCO1)c1ccccc1Oc1ncnc(Oc2ccccc2Cl)c1F [Fluoxastrobin, fluoxastrobin]",IC50,[1]; [8],2630 ± 300 nM
"CO/C(=C/C(N)=O)[C@H](C)[C@H](/C=C/c1csc(-c2csc([C@@H](C)/C=C/C=C/C(C)C)n2)n1)OC [Myxothiazol, myxothiazol, reference compound]",Maximum inhibition rate,"[2]; LPS 1 μg/mL, 24 h",95%
same,IC50,"[2]; LPS 1 μg/mL, 24 h",2.8 nM
same,inhibitory effect on PGF2α-induced contraction,[1]; PGF2α (450 nM),strongest inhibitory effect
same,IC50 values (level in words),[1]; PGF2α-induced,nanomolar level
same,IC50,[1]; PGF2α-induced,215 nM
"CO/C=C(/C(=O)OC)c1ccccc1COc1cccc(C(F)(F)F)n1 [Picoxystrobin, picoxystrobin]",Writhe starting time,Kunming male mice; 200 mg/Kg intragastric,not prolonged
same,effect on number of writhing times,Kunming male mice; 200 mg/Kg intragastric,obviously inhibited
same,Writhe starting time,Kunming male mice; [5],3.3 ± 1.0 min
same,Number of writhing times,Kunming male mice; [6],29.3 ± 4.7
same,IC50,[1]; [7],1200 ± 20 nM
"COC(=O)N(OC)c1ccccc1COc1ccn(-c2ccc(Cl)cc2)n1 [Pyraclostrobin, pyraclostrobin]",IC50,[1]; [8],1050 ± 10 nM
"C/C=C(C)/C=C/C=C/[C@H](OC)[C@@H](C)[C@@H](OC)[C@@H](C)CCc1oc2c(O)c(OC)cc(OC)c2c(=O)c1C [Stigmatellin, reference compound]",Maximum inhibition rate,"[2]; LPS 1 μg/mL, 24 h",88.3±3.9%
same,IC50,"[2]; Mus musculus, RAW264.7, 24 h",6.24 ± 1.15 nM
same,inhibitory effect on PGF2α-induced contraction,[1]; PGF2α (450 nM),strongest inhibitory effect
same,IC50 values (level in words),[1]; PGF2α-induced,nanomolar level
same,IC50,"[1]; Rattus norvegicus, PGF2α-induced",89.9 nM
"CC(C)c1c(C(=O)Nc2ccccc2)c(-c2ccccc2)c(-c2ccc(F)cc2)n1CC[C@@H](O)C[C@@H](O)CC(=O)O [atorvastatin, reference compound]",IC50,[1]; [8],8440 ± 700 nM
"O=C1C(O)=C([C@H]2CC[C@H](c3ccc(Cl)cc3)CC2)C(=O)c2ccccc21 [atovaquone, reference compound]",IC50,[1]; [8],8440 ± 700 nM
CO/C=C(/C(=O)OC)c1ccccc1Oc1cc(Oc2ccccc2C#N)ncn1 [azoxystrobin],Maximum inhibition rate,"[2]; LPS 1 μg/mL, 24 h",86.7 ± 4.3%
same,IC50,"[2]; LPS 1 μg/mL, 24 h",1890 ± 350 nM
same,curative effect compared with indomethacin,Kunming male mice,equivalent to indomethacin at 50 mg/Kg
same,writhe starting time (reaction latency) compared with control group,Kunming male mice,not significantly prolonged
same,Writhe starting time,"Kunming male mice; Table 5, 50 mg/Kg intragastric",3.2 ± 1.1 min
same,Number of writhing times,"Kunming male mice; Table 5, 50 mg/Kg intragastric, within 30 min",31.9 ± 3.1
same,Writhe starting time,"Kunming male mice; Table 5, 100 mg/Kg intragastric",3.4 ± 1.8 min
same,Number of writhing times,"Kunming male mice; Table 5, 100 mg/Kg intragastric, within 30 min",24.9 ± 4.6
same,Writhe starting time,"Kunming male mice; Table 5, 200 mg/Kg intragastric",3.7 ± 1.5 min
same,Number of writhing times,"Kunming male mice; Table 5, 200 mg/Kg intragastric, within 30 min",21.6 ± 3.5
same,Writhe starting time,"Kunming male mice; Table 5, 400 mg/Kg intragastric",3.4 ± 1.2 min
same,Number of writhing times,"Kunming male mice; Table 5, 400 mg/Kg intragastric, within 30 min",12.4 ± 4.2
same,curative effect compared with indomethacin,Kunming female mice [3]; [9],equivalent to 50 mg/Kg of indomethacin
same,Writhe starting time,Kunming female mice [3]; 50 mg/Kg intragastric,3.3 ± 1.5
same,Number of writhing times,Kunming female mice [3]; 50 mg/Kg intragastric,24.2 ± 4.1
same,Writhe starting time,Kunming female mice [3]; 100 mg/Kg intragastric,3.9 ± 1.5
same,Number of writhing times,Kunming female mice [3]; 100 mg/Kg intragastric,14.2 ± 2.2
same,Writhe starting time,Kunming female mice [3]; 200 mg/Kg intragastric,3.3 ± 1.3
same,Number of writhing times,Kunming female mice [3]; 200 mg/Kg intragastric,7.6 ± 1.9
same,effect on number of writhing times,"Kunming female mice [3]; intragastric 50, 100 and 200 mg/Kg",in a dose-dependent manner
same,curative effect compared with indomethacin,Kunming female mice [4]; [9],equivalent to indomethacin at 50 mg/Kg
same,effect on number of writhing times,"Kunming female mice [4]; FAPM intraperitoneal, azoxystrobin intragastric, 50, 100 and 200 mg/Kg one hour before",in a dose-dependent manner
same,Writhe starting time,Kunming female mice [4]; 50 mg/Kg intragastric,2.1 ± 1.0 min
same,Number of writhing times,Kunming female mice [4]; 50 mg/Kg intragastric,17.7 ± 1.9
same,Writhe starting time,Kunming female mice [4]; 100 mg/Kg intragastric,2.0 ± 1.1 min
same,Number of writhing times,Kunming female mice [4]; 100 mg/Kg intragastric,12.8 ± 2.4
same,Writhe starting time,Kunming female mice [4]; 200 mg/Kg intragastric,2.2 ± 0.8 min
same,Number of writhing times,Kunming female mice [4]; 200 mg/Kg intragastric,10.3 ± 1.3
same,IC50,[1]; [7],1700 ± 120 nM
CO/N=C(/C(=O)OC)c1ccccc1COc1ccccc1C [kresoxim-methyl],Maximum inhibition rate,"[2]; LPS 1 μg/mL, 24 h",88.7 ± 5.6%
same,IC50,[2]; [10],2770 ± 690 nM
same,Writhe starting time,Kunming male mice; 200 mg/Kg intragastric,not prolonged
same,effect on number of writhing times,Kunming male mice; 200 mg/Kg intragastric,obviously inhibited
same,Writhe starting time,Kunming male mice; [5],3.4 ± 1.0 min
same,Number of writhing times,Kunming male mice; [6],33.0 ± 2.9
same,IC50,[1]; [8],4080 ± 290 nM
CON=C(C(=O)OC)c1ccccc1CON=C(C)c1cccc(C(F)(F)F)c1 [trifloxystrobin],Maximum inhibition rate,"[2]; LPS 1 μg/mL, 24 h",90.7 ± 2.9%
same,IC50,[2]; [10],640 ± 210 nM
same,curative effect compared with indomethacin,Kunming male mice,equivalent to indomethacin at 50 mg/Kg
same,writhe starting time (reaction latency) compared with control group,Kunming male mice,significantly prolonged
same,Number of writhing times,"Kunming male mice; Table 4, 50 mg/Kg intraperitoneal, within 30 min",22.3 ± 1.2
same,Writhe starting time,"Kunming male mice; ip, 50 mg/kg",3.3 ± 0.5 min
same,Writhe starting time,"Kunming male mice; ip, 100 mg/kg",4.3 ± 1.6 min
same,Number of writhing times,"Kunming male mice; ip, 100 mg/kg, 0.5 h",14.0 ± 1.7
same,Writhe starting time,"Kunming male mice; ip, 200 mg/kg",8.5 ± 2.4 min
same,Number of writhing times,"Kunming male mice; ip, 200 mg/kg, 0.5 h",4.0 ± 2.3
same,IC50,[1]; [8],1770 ± 50 nM
